The nature of data set [1]: Equilibrium solubility in aqueous solvents, concentration by HPLC. As to conditions: 25° C., mixing at least 12 hours, listed as dihydrochloric acid salt, dihydrochloride.
Protocol: (§1) The sample concentration was then determined by HPLC using a single point calibration.
Data set [2] in a line: physchem. To be noted: 25 °C, thermodynamic from solid.
Protocol: as §1
[3] abbreviates: 0.1 N aqueous HCl, simulated gastric fluid.
The mark [4] stands for this setting: pH 7.4 buffer, pH 7.4, aqueous buffer.
Where [5] appears, read: pH 8.0 buffer, pH 8, aqueous buffer.

On to `CNC(=O)c1ccc(-c2cnc3ncc(Cc4ccc5ncccc5c4)n3n2)cc1F.Cl.Cl` [Compound 21, 2-Fluoro-N-methyl-4-(7-(quinolin-6-ylmethyl)imidazo[1,2-b][1,2,4]triazin-2-yl)benzamide dihydrochloride], for which the solubility in water entry in data set [1] is given as “approximately 4.5 mg/mL”. In addition, the solubility (commonly the concentration that dissolves in the medium under given conditions) in data set [2] (setting [3]) is roughly 24000 µg/mL; in data set [2] (setting [4]) it was 2 µg/mL; in data set [2] (setting [5]), 2 µg/mL; in data set [2] (water), roughly 4900 µg/mL.

As for `CNC(=O)c1ccc(-c2cnc3ncc(Cc4ccc5ncccc5c4)n3n2)cc1F.O=S(=O)(O)c1ccccc1.O=S(=O)(O)c1ccccc1` [dibenzenesulfonic acid salt, 2-Fluoro-N-methyl-4-[7-(quinolin-6-ylmethyl)imidazolo[1,2-b][1,2,4]triazin-2-yl]benzamide dibenzenesulfonic acid salt], the solubility in data set [2] (setting [3]) is no less than 29000 µg/mL; in data set [2] (setting [4]), 3 µg/mL; in data set [2] (setting [5]) it was 3 µg/mL; in data set [2] (water) it was roughly 3900 µg/mL.
